From patent US20250295628A1 (priority 2022, published 2025)

Test: Solid stability of compositions 1-11 and compounds 1A-11A: main component content over time under different conditions (Example 37, Table 32)
Assay type: physicochemical
Method: Compositions 1-11 and compounds 1A-11A were placed at environments of −25° C., 5±3° C., 25±2° C./60±5% RH, 40±2° C./75±5% RH, 60° C. for 0 d, 5 d and 10 d (d refers to day), respectively, and changes of the main component content (the main component content of 0 day was converted to 100%) were measured, the results are shown in Table 32.

[1] = 5 ± 3° C., 0 d (0 day content converted to 100%)
[2] = 25 ± 2° C./60 ± 5% RH, 0 d (0 day content converted to 100%)
[3] = 40 ± 2° C./75 ± 5% RH, 0 d (0 day content converted to 100%)
[4] = 60° C., 0 d (0 day content converted to 100%)
[5] = −25° C., 0 d (0 day content converted to 100%)

| SMILES | main component content [1] [%] | main component content (5 ± 3° C., 5 d) [%] | main component content (5 ± 3° C., 10 d) [%] | main component content [2] [%] | main component content (25 ± 2° C./60 ± 5% RH, 5 d) [%] | main component content (25 ± 2° C./60 ± 5% RH, 10 d) [%] | main component content [3] [%] | main component content (40 ± 2° C./75 ± 5% RH, 5 d) [%] | main component content (40 ± 2° C./75 ± 5% RH, 10 d) [%] | main component content [4] [%] | main component content (60° C., 5 d) [%] | main component content (60° C., 10 d) [%] | main component content [5] [%] | main component content (−25° C., 5 d) [%] | main component content (−25° C., 10 d) [%] |
| --- | --- | --- | --- | --- | --- | --- | --- | --- | --- | --- | --- | --- | --- | --- | --- |
| O=C([O-])C(CC1CCCCC1)N(CC(O)C(O)C(O)C(O)CO)C(=S)[S][Na].[Na+] (stereo not drawn) [Compound 6A] | 100 | 98.8 | 99.1 | 100 | 93.1 | 85.3 | 100 | 91.5 | 91.0 | 100 | 60.4 | 57.8 | 100 | 100.6 | 99.9 |
| COc1ccc(CC(C(=O)[O-])N(CC(O)C(O)C(O)C(O)CO)C(=S)[S][Na])cc1.[Na+] (stereo not drawn) [Compound 7A] | 100 | 100.0 | 99.1 | 100 | 99.3 | 98.0 | 100 | 98.7 | 96.5 | 100 | 80.2 | 80.1 | 100 | 100.1 | 100.6 |
| O=C([O-])C(Cc1cccs1)N(CC(O)C(O)C(O)C(O)CO)C(=S)[S][Na].[Na+] (stereo not drawn) [Compound 8A] | 100 | 97.9 | 96.2 | 100 | 95.5 | 93.3 | 100 | 94.7 | 89.6 | 100 | 80.4 | 79.7 | 100 | 101.1 | 100.3 |
| O=C([O-])C(Cc1cncs1)N(CC(O)C(O)C(O)C(O)CO)C(=S)[S][Na].[Na+] (stereo not drawn) [Compound 9A] | 100 | 97.2 | 96.0 | 100 | 98.9 | 96.0 | 100 | 92.6 | 91.5 | 100 | 84.5 | 79.3 | 100 | 100.7 | 100.5 |
| O=C([O-])C(CO)N(CC(O)C(O)C(O)C(O)CO)C(=S)[S][K].[K+] (stereo not drawn) [Compound 10A] | 100 | 99.5 | 98.1 | 100 | 97.0 | 96.1 | 100 | 92.0 | 90.3 | 100 | 82.0 | 79.1 | 100 | 100.5 | 101.4 |
